Measurements as given in US20130171103A1, “METHODS FOR TREATING VIRAL CONDITIONS” (PTC Therapeutics, Inc., priority 2010, published 2013).
Several values for one entry are separate records, joined by “and”; a condition that tells them apart may be missing. Equal values may be shown once.

How the values were obtained:
[1] = test system: HT1080 cells; assay: Cell cycle analysis by propidium iodide staining and flow cytometry; assay type: cell-based; conditions: for effect on cell cycle distribution / % Cells In S-Phase: normoxic; for effect on cell cycle distribution: #10 0.3-100 nM, 1205 10 nM; for % Cells In S-Phase: HT1080 cells, 100 nM, 18 hours, DMSO control 17.3, >20% considered active
[2] = test system: HT 1080 cells; assay: Kinetics of S-phase transit by BrdU incorporation into DNA; assay type: cell-based; conditions: 18-hour treatment
Procedure: HT 1080 cells are exposed to BrdU (bromodeoxyuridine, a synthetic nucleoside that is an analogue of thymidine and is incorporated into DNA during the S phase of cell division) (FITC BrdU Flow Kit, BD Pharmingen catalog #552598). Cells are grown and treated as described in Section 9.3.1.3 above with the exception that one hour prior to harvesting by trypsinization, BrdU (final concentration 1 μM) is added to each culture for 1 hour. Cells actively replicating DNA during this brief time incorporate the BrdU into the DNA, which can then be quantified. BrdU content is quantified using the FITC BrdU Flow Kit as instructed by the manufacturer. The process includes fixation (paraformaldehyde) and DNA staining with 7-AAD (7-amino-actinomycin D) followed by incubation with a fluoro-tagged anti-BrdU antibody that specifically recognizes BrdU incorporated into DNA. Dual channel FACS analysis permits assessment of both the DNA content of individual cells and the rate of transit across the S-phase, which is assessed based upon BrdU incorporation over the one hour treatment period.

[3] = test system: HT1080 spheroids; assay: 3-dimensional growth of HT1080 spheroids (BrdU/7-AAD FACS, morphology); assay type: cell-based
[4] = test system: HCV genotype 1b replicon; assay: HCV subgenomic replicon assay, genotype 1b, standard cell culture; assay type: cell-based, hepatitis C virus
[5] = test system: Adenovirus; assay: Adenovirus CPE protection assay in HeLa cells; assay type: cell-based; conditions: unidentified adenovirus, DNA
[6] = test system: HSV-1; assay: HSV-1 CPE protection assay in Vero cells; assay type: cell-based, herpes simplex virus-1; conditions: Human alphaherpesvirus 1, HSV-1, DNA
[7] = test system: Influenza A; assay: microbe, parasite or virus in culture; assay type: cell-based; conditions: MDCK
[8] = test system: Parainfluenza; assay: Parainfluenza CPE protection assay in Vero cells; assay type: cell-based, parainfluenza virus; conditions: (−) RNA
[9] = test system: RSV; assay: RSV CPE protection assay in Vero cells; assay type: cell-based; conditions: human respiratory syncytial virus
[10] = test system: Dengue 2; assay: Dengue 2 CPE protection assay in Vero E6 cells; assay type: cell-based; conditions: Dengue virus, Vero C1008, Dengue 2, (+) RNA
[11] = test system: HIV-1; assay: HIV-1 CPE protection assay in MT-2 cells; assay type: cell-based; conditions: Human immunodeficiency virus 1, MT2; HIV-1, Retro, MT-2, CPE protection
Procedure: (§1) The activity against HIV-1 was tested in MT2 cells and PBMCs in cell culture by preventing virus induced cytopathic effect and measuring viral p24 protein in the culture supernatant.

[12] = test system: HIV-1; assay: HIV-1 p24 ELISA assay in PBMCs; assay type: cell-based; conditions: Human immunodeficiency virus 1, PBMC, HIV-1, Retro
Procedure: as §1

[13] = Cytotoxicity (CC50) in MT-2 cells; assay type: cell-based; conditions: human, MT-2, HIV-1 line
[14] = Cytotoxicity (CC50) in PBMCs; assay type: cell-based; conditions: human, HIV-1 line
[15] = Safety pharmacology studies
Description: (§2) Nonclinical safety testing further supports clinical development of Compound #10.

[16] = Toxicology study in rats through 28 days; assay type: in vivo; conditions: doses and exposures in excess of therapeutic nonclinical doses
Description: as §2

[17] = Toxicology study in dogs through 28 days; assay type: in vivo; conditions: doses and exposures in excess of therapeutic nonclinical doses
Description: as §2

[18] = Genotoxicity studies
Description: as §2

[19] = Phase 1a single-dose study in healthy volunteers; assay type: in vivo, human; conditions: healthy subjects, single doses through 3 mg/kg (~210 mg), highest single dose tested
Procedure: Initial clinical evaluation of Compound #10 was performed in healthy volunteers.

[20] = Phase 1b and Phase 2 studies in patients with neoplasia (safety); assay type: in vivo, human; conditions: 0.3 mg/kg/dose BID to 200 mg/dose TID, at least 4-6 weeks
Procedure: To date, doses of 0.3 mg/kg/dose (˜20 mg/dose) (n=6), 0.6 mg/kg/dose (˜40 mg/dose) (n=9), 1.2 mg/kg/dose (˜80 mg/dose) (n=12) BID have been tested for at least 4 weeks. In addition, 100 mg/dose BID (n=52), 100 mg/dose TID (n=6), 120 mg/dose TID (n=3), 160 mg/dose TID (N=3), and 200 mg/dose TID (n=3) have been tested for at least 6 weeks of continuous treatment.

[21] = test system: Vero; conditions: WNV line
[22] = in vitro; conditions: African green monkey, CC50 (μM)
[23] = in vitro; conditions: human
[24] = in vitro; conditions: African green monkey
[25] = in vitro; conditions: dog
[26] = Cytotoxicity (CC50) in HeLa cells; conditions: human
[27] = Bioavailability in vivo from aqueous suspension; conditions: administered in an aqueous suspension
Procedure: It is anticipated that Compound 1205 can be clinically administered via a solid-dosage form. For all the studies outlined herein, Compound 1205 was lyophilized prior to formulation to minimize batch-to-batch variations in particle-size.
The compound was dissolved in acetonitrile at a concentration of 15 mg/mL. An equal amount of water was added to bring the final concentration to 7.5 mg/mL in a 1:1 acetonitrile/water solution (v/v). The solution was frozen on the shelf of the freeze dryer for a minimum of 3 hours and then lyophilized. The resulting solid was determined to be amorphous by differential scanning calorimetry and polarized light microscopy. Suspensions were prepared by the addition of 0.5% HPMC with 1% Tween-80, followed by stirring and homogenization for 2 minutes.

COc1ccc([C@H]2c3[nH]c4ccc(Cl)cc4c3CCN2C(=O)Oc2ccc(Cl)cc2)cc1 (racemic) [#10]
concentration from which an accumulation of cells in S phase is observed ([1]; HT1080, 18 hours): ≥ 1 nM | effect on cell cycle distribution ([1]; HT1080, 18 hours): induced a redistribution of the cycling characteristics of the cell population | BrdU incorporated by individual cells during one-hour pulse versus DMSO control [2]: less BrdU | percentage of cells residing in S-phase ([2]; increasing doses (1-100 nM)): net increase | percentage of spheroid cells that incorporated BrdU (cells in S-phase) ([3]; 24 or 48 hours, 10 nM or 50 nM): not significantly altered | gross morphology of spheroids ([3]; day 5 of treatment, 10 nM or 50 nM): indistinguishable from one another | morphology of spheroids ([3]; maintained in presence of compound for three weeks): no obvious morphological changes | cell cycle distribution of HT1080 spheroids ([3]; treated for 24 hours): not affected | cell cycle distribution of HT1080 spheroids ([3]; treated for 48 hours): not affected | antiviral activity in HCV replicon systems [4]: potent in vitro inhibitory activity | IC50 [5]: > 1000 nM | IC90 [5]: > 1000 nM | IC50 [6]: > 1000 nM | IC90 [6]: > 1000 nM | IC50 [7]: > 1000 nM | IC90 [7]: > 1000 nM | IC50 [8]: 29 nM | IC90 [8]: 44 nM | IC50 [9]: 250 nM | IC90 [9]: ≥ 160 nM | IC50 [10]: > 1000 nM | IC90 [10]: > 1000 nM | IC50 [11]: 22 nM | IC50 [12]: > 1000 nM | CC50 [13]: 4.1 nM | CC50 [14]: 680 nM | safety pharmacology finding [15]: no adverse off-target effects | tolerability in toxicology study [16]: good tolerability | tolerability in toxicology study [17]: good tolerability | genotoxicity finding [18]: no evidence of genotoxic effects | clinical safety [19]: acceptable safety | clinical tolerability [20]: generally well tolerated | CC50 [21]: > 1000 nM | CC50 [22]: 0.7 µM and 0.083 µM | CC50 [23]: > 1000 nM | CC50 [24]: > 1000 nM | CC50 [25]: > 1000 nM | CC50 [26]: > 1000 nM

O=C(Oc1ccc(Cl)cc1)N1CCc2c([nH]c3ccc(Cl)cc23)[C@@H]1c1ccc(OCC[C@H](O)CO)cc1 [Compound 1205]
effect on cell cycle distribution ([1]; HT1080, 18 hours): induced a redistribution of the cycling characteristics of the cell population | bioavailability in vivo [27]: bioavailable

O=C(Oc1ccc(Cl)cc1)N1CCc2c([nH]c3ccc(Cl)cc23)C1c1ccc(OCCN2CCOCC2)cc1 (stereo not drawn) [Compound 331]
% Cells In S-Phase [1]: 16.4%

O=C(Oc1ccc(Cl)cc1)N1CCc2c([nH]c3ccc(Cl)cc23)C1c1ccc(OCCN2CCCCC2)cc1 (stereo not drawn) [Compound 1736]
% Cells In S-Phase [1]: 16.8%
